Results from patent publication US20230372274A1, “COMPOSITIONS AND METHODS FOR PERIORBITAL ADMINISTRATION OF EP2 RECEPTOR AGONISTS” (JENIVISION INC., priority 2021, published 2023).

Columns and labels:
[1] = molecular target: T1, human recombinant EP2 receptors (Homo sapiens, UniProt P43116); conditions: cited from earlier work
T1 construct: expressed in transfected cells; host or cells: HEK cells

EP1 receptors = molecular target: T2, EP1 receptors (Homo sapiens, UniProt P34995); conditions: Woodward et al., 2019; cited from earlier work
T2 sequence (P34995 1-402): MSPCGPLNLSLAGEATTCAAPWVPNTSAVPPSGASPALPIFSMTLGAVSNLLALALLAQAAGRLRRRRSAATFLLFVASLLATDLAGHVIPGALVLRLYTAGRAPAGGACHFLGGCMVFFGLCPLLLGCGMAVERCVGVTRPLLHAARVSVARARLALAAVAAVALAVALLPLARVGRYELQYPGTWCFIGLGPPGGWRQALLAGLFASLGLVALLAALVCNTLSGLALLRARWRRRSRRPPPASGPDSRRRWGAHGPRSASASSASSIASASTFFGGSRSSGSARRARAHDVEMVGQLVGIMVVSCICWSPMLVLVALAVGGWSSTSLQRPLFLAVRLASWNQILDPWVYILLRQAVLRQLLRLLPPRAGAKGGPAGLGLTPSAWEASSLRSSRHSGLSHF

EP3 receptors = molecular target: T3, EP3 receptors (Homo sapiens, UniProt P43115); conditions: Woodward et al., 2019; cited from earlier work
T3 sequence (P43115 1-390): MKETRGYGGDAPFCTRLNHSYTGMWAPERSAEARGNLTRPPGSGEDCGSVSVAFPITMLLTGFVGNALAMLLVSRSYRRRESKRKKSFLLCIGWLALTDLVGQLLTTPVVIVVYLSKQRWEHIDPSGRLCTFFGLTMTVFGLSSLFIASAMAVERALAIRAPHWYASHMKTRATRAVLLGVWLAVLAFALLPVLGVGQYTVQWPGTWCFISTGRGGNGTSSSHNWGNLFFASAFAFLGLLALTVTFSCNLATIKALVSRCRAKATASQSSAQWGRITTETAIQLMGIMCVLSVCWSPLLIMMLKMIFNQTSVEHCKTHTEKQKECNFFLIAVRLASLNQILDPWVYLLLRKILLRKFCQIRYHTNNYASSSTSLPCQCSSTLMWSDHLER

EP4 receptors = EP4 receptors (Homo sapiens, UniProt P35408); conditions: Woodward et al., 2019; cited from earlier work
DP receptors = molecular target: T4, DP receptors (Homo sapiens, UniProt Q13258); conditions: Woodward et al., 2019; cited from earlier work
T4 sequence (Q13258 1-359): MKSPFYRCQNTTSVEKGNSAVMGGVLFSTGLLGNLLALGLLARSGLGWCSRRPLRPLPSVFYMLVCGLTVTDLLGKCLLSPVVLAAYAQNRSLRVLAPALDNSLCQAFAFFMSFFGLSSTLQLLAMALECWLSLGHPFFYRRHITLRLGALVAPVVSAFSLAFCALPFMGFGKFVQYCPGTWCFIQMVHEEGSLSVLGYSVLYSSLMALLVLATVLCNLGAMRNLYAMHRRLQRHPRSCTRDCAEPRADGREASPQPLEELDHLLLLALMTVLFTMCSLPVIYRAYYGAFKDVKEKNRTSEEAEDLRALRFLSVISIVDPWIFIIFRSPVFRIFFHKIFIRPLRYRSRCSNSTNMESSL

FP receptors = FP receptors (Homo sapiens, UniProt P43088); conditions: Woodward et al., 2019; cited from earlier work
IP receptors = IP receptors (Homo sapiens, UniProt P43119); conditions: Woodward et al., 2019; cited from earlier work
TP receptors = molecular target: T5, TP receptors (Homo sapiens, UniProt P21731); conditions: Woodward et al., 2019; cited from earlier work
T5 sequence (P21731 1-343): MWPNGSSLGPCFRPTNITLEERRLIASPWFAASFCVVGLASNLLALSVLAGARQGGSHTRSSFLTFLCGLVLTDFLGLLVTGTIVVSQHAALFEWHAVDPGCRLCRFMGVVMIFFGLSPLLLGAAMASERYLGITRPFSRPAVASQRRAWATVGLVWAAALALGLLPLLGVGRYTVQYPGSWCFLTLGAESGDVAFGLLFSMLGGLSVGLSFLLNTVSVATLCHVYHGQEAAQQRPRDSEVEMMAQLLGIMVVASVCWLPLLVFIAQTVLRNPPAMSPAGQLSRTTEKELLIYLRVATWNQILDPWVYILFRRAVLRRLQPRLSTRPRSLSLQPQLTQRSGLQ

[2] = tested on: ocular normotensive cynomolgus monkeys; test: Intraocular pressure after single periorbital dose (Example 1); format: in vivo, cynomolgus monkey; conditions: single periorbital dose of 10, 20 and 30 micrograms (similar extent), right eye (OD)
Source text: FIG. 2 compares the effect of 9 micrograms bimatoprost (30 pi of 0.03% Lumigan® ophthalmic solution) topical ocular surface administration once daily per eye for 4 days with single dose periorbital skin administration of [(3′-fluoro-4-fluorobiphenyl-3-carbonyl) amino] phenoxyacetic acid isopropyl ester ointment at 10 micrograms, 20 micrograms or 30 micrograms [(3′-fluoro-4-fluorobiphenyl-3-carbonyl) amino] phenoxyacetic acid isopropyl ester on intraocular pressure (TOP) in ocular normotensive Cynomolgus monkeys (Mean±SEM, n=4/group).
(§1) Ocular normotensive cynomolgus monkeys were administered a single dose of JV-GL1 Ointment (20% medium-chain triglycerides and 80% petrolatum (v/v)) to the periorbital skin of the right eye (OD) at JV-GL1 doses of 10 micrograms, 20 micrograms, and 30 micrograms and TOP was measured; Lumigan® eye drops were used as a comparator. […] Compared with baseline, IOP was decreased in the eyes (OD) of animals treated with 10 micrograms, 20 micrograms, and 30 micrograms JVGL-1 to a similar extent (approximately 60%) whereas a much lower decrease occurred for Lumigan® (approximately 30%).

[3] = tested on: ocular normotensive cynomolgus monkeys; test: Periorbital skin and pupil observations after single periorbital dose of 10-30 micrograms (Example 1); format: in vivo, cynomolgus monkey
Method: as §1
The incidence rate of pupil constriction in the three test article groups was 100% after 2-3 hours post-dosing.

[4] = tested on: ocular normotensive cynomolgus monkeys; test: Intraocular pressure after once daily periorbital 0.2 μg/eye ointment (Example 2); format: in vivo, cynomolgus monkey
Method: Animals were unilaterally treated via periorbital skin administration of [(3′-fluoro-4-fluorobiphenyl-3-carbonyl) amino] phenoxyacetic acid isopropyl ester ointment once daily on Days 15-21. The right eye of the control group (Group 2) received ointment vehicle once daily on Days 8-14 and no treatment on Days 15-21. OD=right eye.
Ocular normotensive cynomolgus monkeys (Group 1, n=3) were unilaterally treated via periorbital skin administration of JV-GL1 ointment once daily in an amount of 0.2 μg in the right eye on Days 15-21 of a study, the results of which are shown in FIG. 3. JV-GL1 was administered as an ointment (20% medium-chain triglycerides and 80% petrolatum (v/v)). The animals were untreated on days 8-14 and IOP monitored daily. Group 2 (n=3) was administered vehicle ointment alone on days 8-14, followed by no treatment on days 15-21 of the study.

[5] = tested on: ocular normotensive cynomolgus monkeys; test: Local observations after low periorbital doses of ointment (0.2 to 5 micrograms/eye); format: in vivo, cynomolgus monkey
Method: Separately, ocular normotensive cynomolgus monkeys were administered single doses of the ointment at 0.6 micrograms, 2.0 micrograms or 5.0 micrograms per eye.

monkey = test: Monkey study of periorbital skin administration versus eye drops; format: in vivo; conditions: essentially equal doses
human subjects [6] = test: IOP in human subjects after once daily periorbital ointment (Example 6); format: in vivo
Method: (§2) Human subjects were treated with JV-GL1 ointment (20% medium-chain triglycerides and 80% petrolatum (v/v)) via periorbital skin administration to both eyes once daily. The human subjects were monitored daily for 9 days, with TOP measurements taken at 0 hours, 0.5 hours, 2 hours, and 8 hours from administration of the dose on Days 0, 1, and 9. IOP measurements were taken 0 hours from administration of the dose on Days 4 and 7.

human subjects [7] = test: Tolerability in human subjects during periorbital dosing (Example 6); format: in vivo; conditions: Groups 1-4, during the dosing period
Method: as §2

[8] = 10, 20, 30 micrograms single dose

T1 sequence (P43116 whole entry): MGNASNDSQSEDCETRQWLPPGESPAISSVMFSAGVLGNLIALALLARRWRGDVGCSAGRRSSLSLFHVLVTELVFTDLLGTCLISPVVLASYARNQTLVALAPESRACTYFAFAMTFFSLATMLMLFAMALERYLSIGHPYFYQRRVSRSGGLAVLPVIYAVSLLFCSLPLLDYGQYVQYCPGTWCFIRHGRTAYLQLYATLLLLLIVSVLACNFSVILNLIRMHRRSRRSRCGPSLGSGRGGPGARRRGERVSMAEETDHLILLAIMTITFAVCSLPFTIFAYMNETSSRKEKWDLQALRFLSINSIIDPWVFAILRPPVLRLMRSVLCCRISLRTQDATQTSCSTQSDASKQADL
Sequence of FP receptors (P43088 whole entry): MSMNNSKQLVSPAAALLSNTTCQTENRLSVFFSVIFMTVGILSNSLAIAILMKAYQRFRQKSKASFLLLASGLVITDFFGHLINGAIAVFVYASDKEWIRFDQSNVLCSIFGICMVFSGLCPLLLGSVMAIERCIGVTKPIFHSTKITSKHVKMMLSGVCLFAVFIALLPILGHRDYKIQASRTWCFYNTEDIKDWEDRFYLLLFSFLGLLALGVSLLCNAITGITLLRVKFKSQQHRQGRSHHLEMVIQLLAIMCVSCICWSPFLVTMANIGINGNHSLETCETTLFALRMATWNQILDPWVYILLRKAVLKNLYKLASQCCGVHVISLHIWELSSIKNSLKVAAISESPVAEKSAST
Sequence of EP4 receptors (P35408 whole entry): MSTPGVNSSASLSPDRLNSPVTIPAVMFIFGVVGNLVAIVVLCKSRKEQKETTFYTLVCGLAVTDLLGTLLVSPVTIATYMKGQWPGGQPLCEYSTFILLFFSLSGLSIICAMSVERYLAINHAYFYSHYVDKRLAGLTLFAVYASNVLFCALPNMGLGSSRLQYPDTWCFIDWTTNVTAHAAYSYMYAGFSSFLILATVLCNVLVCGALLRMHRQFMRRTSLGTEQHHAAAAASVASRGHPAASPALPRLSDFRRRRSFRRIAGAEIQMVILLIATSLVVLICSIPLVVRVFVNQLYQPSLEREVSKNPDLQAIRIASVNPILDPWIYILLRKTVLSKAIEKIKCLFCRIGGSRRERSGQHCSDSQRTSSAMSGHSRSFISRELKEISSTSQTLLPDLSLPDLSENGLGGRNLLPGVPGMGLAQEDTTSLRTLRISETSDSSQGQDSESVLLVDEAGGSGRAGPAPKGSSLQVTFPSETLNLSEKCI
Sequence of IP receptors (P43119 whole entry): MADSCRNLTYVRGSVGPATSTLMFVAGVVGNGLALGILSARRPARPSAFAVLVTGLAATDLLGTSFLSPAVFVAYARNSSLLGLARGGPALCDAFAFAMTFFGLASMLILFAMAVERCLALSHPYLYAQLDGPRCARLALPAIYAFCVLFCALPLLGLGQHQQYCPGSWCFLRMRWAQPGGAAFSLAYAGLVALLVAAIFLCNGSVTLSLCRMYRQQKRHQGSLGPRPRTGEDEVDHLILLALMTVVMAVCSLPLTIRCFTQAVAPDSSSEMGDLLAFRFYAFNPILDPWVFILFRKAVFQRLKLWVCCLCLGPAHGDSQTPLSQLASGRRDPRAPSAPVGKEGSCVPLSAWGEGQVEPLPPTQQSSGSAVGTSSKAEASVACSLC

What does the source list for `O=C(O)COc1cccc(NC(=O)c2cc(-c3cccc(F)c3)ccc2F)c1` [JV-GL1 free acid, 3-[(3′-fluoro-4-fluorobiphenyl-3-carbonyl)amino] phenoxyacetic acid]?
maximal elevation of cAMP levels ([1]; HEK cells over-expressing human recombinant EP2 receptors, versus PGE2): comparable to that of the endogenous agonist PGE2; EP2 receptor agonism ([1]; Woodward et al., 2019): potent and full EP2 receptor agonist; affinity for EP1 receptors (EP1 receptors): negligible; affinity for EP3 receptors (EP3 receptors): negligible; affinity for EP4 receptors (EP4 receptors): negligible; affinity for DP receptors (DP receptors): negligible; affinity for FP receptors (FP receptors): negligible; affinity for IP receptors (IP receptors): negligible; affinity for TP receptors (TP receptors): negligible

With `CC(C)OC(=O)COc1cccc(NC(=O)c2cc(-c3cccc(F)c3)ccc2F)c1` [JV-GL1, 3-[(3′-fluoro-4-fluorobiphenyl-3-carbonyl)amino] phenoxyacetic acid isopropyl ester] as the molecule, how does the “IOP decrease compared with baseline” value [2] read?
The value was “approximately 60%”.

And the “incidence rate of periorbital skin swelling, dose relation” value [3, 8]?
The value was “showed a certain dose dependent relationship”.

And the “recovery of periorbital skin redness” value [3, 8]?
Its value is “completely recovered by Day 2”.

And the “resolution of periorbital skin swelling” value [3, 8]?
Its value is “disappeared by Day 5”.

What about the “incidence rate of periorbital skin redness” value ([3]; all three groups (10, 20, 30 micrograms), 2-3 hours post-dosing) of the same molecule?
The value was 100%.

And the “recovery of pupil constriction” value ([3]; except a single animal in the high-dose group)?
The value was “recovered by Day 15”.

And the “local findings at 10 to 30 micrograms/eye” value ([3]; in ointment, periorbital, 10 to 30 micrograms/eye)?
The value was “modest pupil constriction, erythema of the ocular surface and periorbital skin, and swelling of the periorbital skin”.

What about the “incidence rate of pupil constriction” value ([3]; three groups (10, 20, 30 micrograms), after 2-3 hours post-dosing) of the same molecule?
Its value is 100%.

And the “onset of marked decrease in IOP” value ([4]; 0.2 μg/eye (OD) once daily)?
Its value is “as early as one day following initiation of treatment”.

What about the “IOP by the end of the study” value ([4]; 0.2 μg/eye (OD) once daily Days 15-21, from a starting point of ˜25 mmHg) of the same molecule?
Its value is ~10 mmHg.

What about the “efficacy and local tolerability at lower doses” value ([5]; 0.2 to 5 micrograms/eye, periorbital) of the same molecule?
Its value is “retained without obvious periorbital skin swelling and hyperemia of the periorbital skin and ocular surface”.

And the “pupil constriction during the dosing period” value ([5]; eyes treated with either eye drops or ointment)?
The value was “persistent pupil constriction was observed”.

What about the “resolution of skin redness and swelling” value ([5]; single doses of ointment at 0.6, 2.0 or 5.0 micrograms per eye) of the same molecule?
Its value is “disappeared a few hours to overnight after dosing”.

And the “efficacy of periorbital skin administration versus eye drops” value (monkey)?
Its value is “as effective as eye drops”.

What about the “average change in TOP” value (human subjects [6]; Group 1, 0.30 μg/eye/day over 9 days, 0 hours after dose) of the same molecule?
The value was −6%.

What about the “average change in TOP” value (human subjects [6]; Group 1, 0.30 μg/eye/day over 9 days, 0.5 hours after dose) of the same molecule?
The value was −3%.

And the “average change in TOP” value (human subjects [6]; Group 1, 0.30 μg/eye/day over 9 days, 2 hours after dose)?
The value was 0%.

And the “average change in TOP” value (human subjects [6]; Group 1, 0.30 μg/eye/day over 9 days, 8 hours after dose)?
The value was −4%.

And the “average change in TOP” value (human subjects [6]; Group 2, 0.59 μg/eye/day over 9 days, 0 hours after dose)?
Its value is −14%.

What about the “average change in TOP” value (human subjects [6]; Group 2, 0.59 μg/eye/day over 9 days, 0.5 hours after dose) of the same molecule?
The value was −10%.

What about the “average change in TOP” value (human subjects [6]; Group 2, 0.59 μg/eye/day over 9 days, 2 hours after dose) of the same molecule?
Its value is −16%.

And the “average change in TOP” value (human subjects [6]; Group 2, 0.59 μg/eye/day over 9 days, 8 hours after dose)?
The value was −12%.

What about the “average change in TOP” value (human subjects [6]; Group 3, 0.99 μg/eye/day over 9 days, 0 hours after dose) of the same molecule?
The value was −11%.

What about the “average change in TOP” value (human subjects [6]; Group 3, 0.99 μg/eye/day over 9 days, 0.5 hours after dose) of the same molecule?
Its value is −16%.

What about the “average change in TOP” value (human subjects [6]; Group 3, 0.99 μg/eye/day over 9 days, 2 hours after dose) of the same molecule?
The value was −16%.

And the “average change in TOP” value (human subjects [6]; Group 3, 0.99 μg/eye/day over 9 days, 8 hours after dose)?
Its value is −15%.

And the “average change in TOP” value (human subjects [6]; Group 4, 1.92 μg/eye/day over 9 days, 0 hours after dose)?
Its value is −19%.

What about the “average change in TOP” value (human subjects [6]; Group 4, 1.92 μg/eye/day over 9 days, 0.5 hours after dose) of the same molecule?
The value was −22%.

And the “average change in TOP” value (human subjects [6]; Group 4, 1.92 μg/eye/day over 9 days, 2 hours after dose)?
The value was −20%.

What about the “average change in TOP” value (human subjects [6]; Group 4, 1.92 μg/eye/day over 9 days, 8 hours after dose) of the same molecule?
The value was −14%.

And the “average change in TOP” value (human subjects [6]; Group 5, 3.99 μg/eye/day over 9 days, 0 hours after dose)?
Its value is −13%.

What about the “average change in TOP” value (human subjects [6]; Group 5, 3.99 μg/eye/day over 9 days, 0.5 hours after dose) of the same molecule?
The value was −13%.

And the “average change in TOP” value (human subjects [6]; Group 5, 3.99 μg/eye/day over 9 days, 2 hours after dose)?
Its value is −18%.

And the “average change in TOP” value (human subjects [6]; Group 5, 3.99 μg/eye/day over 9 days, 8 hours after dose)?
The value was −18%.

And the “dose dependence of TOP reduction” value (human subjects [6]; Groups 1, 2, 3 and 4 (0.30 to 1.92 μg/eye/day))?
The value was “dose-dependent trend in TOP reduction”.

And the “irritation or discomfort associated with AE of mild periorbital erythema” value (human subjects [7])?
The value was “did not report any irritation or discomfort”.
